Positions of bridges follow the written chain, without caps; N, C: chain ends. No end group written: not given here.
Legend:
C57B1/6J females [1] = test: Bone mineral density increase in mice by slow release CART treatment (in vivo micro-CT, distal femur)
Experimental: In this experiment mice were treated with 3 different concentrations of CART peptide. The experiment was conducted in 12 weeks old C57B1/6J females and consisted of four experimental groups (n=5 per group). The first group of mice received placebo slow release pellets (SX-999, 60 day slow release pellets, Innovative Research of America, Sarasota, Fla.). The other three groups were treated with SX-999 slow release pellets containing either 20 μg, 50 μg or 100 μg (2×50 μg) rat CART 55-102 peptide (rCART) (Phoenix Pharmaceuticals, Inc. Belmont, Calif.). Mice were sedated with injection anaesthetics (Hypnorm (VetaPharma, Leeds, UK)/Dormicum (Roche, Mijdrecht, The Netherlands)) and the pellets were implanted subcutaneously in the neck. Bone architecture and density was determined at the distal femur at T=0 by an in vivo micro-CT measurement (Skyscan1076 micro-CT scanner, Skyscan, Kontich, Belgium). Scans were performed at 9 μm resolution. Trabecular bone analysis was performed on a 2 mm slice 150 μm proximal to the distal growth plate of the femur. In vivo micro-CT measurements were repeated at day 28 and day 60. The BMD value of the placebo group at T=0, T=28 and T=60 days was set at 100% and the BMD values of the 20 μg, 50 μg and 100 μg (2×50 μg) CART treated groups were calculated relatively to the placebo group. Values are expressed as mean±SD of the individual data. For statistical analysis the treatment groups were compared with the placebo group of the corresponding time point in a standard Student T-test (two-tailed). P<0.05 was considered as significant.

C57B1/6J females [2] = test: CART slow release formulation vs. daily CART injections, bone mineral density in mice (in vivo micro-CT, distal femur); conditions: daily s.c. injections of 2 μg in 0.9% NaCl, 30 days
Experimental: In this experiment the effectiveness of CART peptide to improve bone mineral density via a slow release formulation was compared with daily injections of CART. The experiment was conducted in 12 weeks old C57B1/6J females and consisted of four experimental groups (n=5 per group). In the first group of mice 2 placebo slow release pellets (SX-999, 60 day pellets, Innovative Research of America, Sarasota, Fla.) were implanted subcutaneously in the neck. In the second group 2 SX-999 slow release pellets containing 50 μg rat CART55-102 (Phoenix Pharmaceuticals, Inc. Belmont, Calif.) each, were implanted subcutaneously in the neck. The other two groups received daily s.c. injections with either vehicle (0.9% NaCl) or with 2 μg rat CART55-102 peptide in 0.9% NaCl. Mice were sedated with injection anaesthetics (Hypnorm (VetaPharma, Leeds, UK)/Dormicum (Roche, Mijdrecht, The Netherlands)) and bone density was determined in the distal femur by an in vivo micro-CT measurement (Skyscan1076 micro CT scanner, Skyscan, Belgium) at T=0 and at T=30 days. Blood was collected weekly by orbita puncture to determine serum CART levels. BMD (g/cm^3) was expressed as mean±SD of the individual data. Statistical analysis was performed using the Student T-test (two-tailed). P<0.05 was considered as significant.

bovine granulosa cells = test: CART induced suppression of FSH-induced 17β-estradiol production in bovine granulosa cells; format: cell-based; conditions: 1 μM CART peptide, 7 days culture
Experimental: Ovaries from double muscled cows were obtained at a local abattoir and granulosa cells were collected from 3- to 5-mm follicles at random stages of the estrus cycle. Follicles were placed in culture medium (M505 medium (Gibco Invitrogen, Carlsbad, Calif., USA) supplemented with antibiotics (100 IU/ml penicillin and 0.1 mg/ml streptomycin (Invitrogen, Carlsbad, Calif., USA), 10 ng/mL insulin (Schering-Plough, Oss, The Netherlands), 4 ng/mL sodium selenite (Sigma Aldrich, St. Louis, Mo., USA), 5 μg/mL apo-transferrin (Sigma Aldrich, St. Louis, Mo., USA) and 10^−7M androstenedione (Org 6, Schering-Plough, Oss, The Netherlands)) at 37° C. Follicles were ruptured with a needle and the cells were passed through a cell strainer (70 μm nylon, Becton Dickinson, Bedford, USA). Cells were centrifuged for 10 min at 340×g and resuspended in culture medium. Cells (1×10^5 viable cells/well) were cultured in 96 wells plate for 7 days at 37° C. in a humidified atmosphere (5% CO2, 95% air) in the presence of 0, 20, 100 or 300 mUnits FSH (Org 32489, Schering-Plough, Oss, The Netherlands) in combination with […], 10^−7, […], 10^−9, 10^−10, 10^−11 or 10^−12M rat CART 55-102 (Phoenix Pharmaceuticals Inc., Belmont, Calif., USA). […] After 7 days 17β-estradiol levels were determined in the culture medium using a 17β-estradiol ELISA (Diagnostic Systems Laboratories Inc., Marburg, Germany).

Ile-Pro-Ile-Tyr-Glu-Lys-Lys-Tyr-Gly-Gln-Val-Pro-Met-Cys-Asp-Ala-Gly-Glu-Gln-Cys-Ala-Val-Arg-Lys-Gly-Ala-Arg-Ile-Gly-Lys-Leu-Cys-Asp-Cys-Pro-Arg-Gly-Thr-Ser-Cys-Asn-Ser-Phe-Leu-Leu-Lys-Cys-Leu (IPIYEKKYGQVPMCDAGEQCAVRKGARIGKLCDCPRGTSCNSFLLKCL; disulfide 14-32, 20-40, 34-47; ends not checked) [rat CART 55-102, rat CART 55-102 peptide (rCART) (Phoenix Pharmaceuticals, Inc.)]
increase in trabecular bone mineral density (BMD) as compared to the placebo group (C57B1/6J females [1]; 50 μg rCART in SX-999 slow release pellet s.c., after 60 days): 40-50%
increase in trabecular bone mineral density (BMD) as compared to the placebo group (C57B1/6J females [1]; 100 μg (2×50 μg) rCART in SX-999 slow release pellets s.c., after 28 days): 50-60%
increase in trabecular bone mineral density (BMD) as compared to the placebo group (C57B1/6J females [1]; 100 μg (2×50 μg) rCART in SX-999 slow release pellets s.c., after 28 days, listed as CART peptide): 50%
increase in trabecular bone mineral density (BMD) as compared to the placebo group (C57B1/6J females [1]; 100 μg (2×50 μg) rCART in SX-999 slow release pellets s.c., after 60 days): 80%
increase in BMD (C57B1/6J females [2]): did not show an increase in BMD
suppression of FSH-induced 17β-estradiol production (bovine granulosa cells; 100 mUnits FSH): 1.5 fold
suppression of FSH-induced 17β-estradiol production (bovine granulosa cells; 300 mUnits FSH): 3 fold

Reference: patent publication US20100075893A1, “PREPARATION OF A PHARMACEUTICAL COMPOSITION FOR INCREASING BONE MINERAL DENSITY” (priority 2008, published 2010)
